{
  "source": "patent US20030092753A1",
  "about": "“Methods for the treatment and prevention of neurodegenerative conditions” (Wyeth, priority 1999, published 2003)",
  "tested_on": "rat hippocampal slices",
  "experiment": "Reduction of azide-induced ischemic efflux of glutamate in rat hippocampal slices",
  "assay_type": "cell-based",
  "details": "AUC vs control, statistically significant",
  "experimental": "Adatanserin was evaluated for its ability to reduce the azide-induced ischemic efflux of glutamate in rat hippocampal slices. Three Krebs buffers were used in the experiments. Normal Krebs buffer consisted of a solution containing the following: (122 mM NaCl, 3 mM KCl, 24 mM NaHCO3, 10 mM glucose, 0.315 mM K2HPO4, 1.2 mM MgSO4, 4 mM CaCl2). Aglycemic Krebs buffer was similar to the normal buffer with the exception that glucose was not added. Ischemic Krebs buffer was the aglycemic solution which contained varying concentrations of sodium azide (0-30 mM).\nRat hippocampi were dissected on a cold platform and suspended in ice cold oxygenated normal Krebs buffer. The tissue was cross-chopped at 350 microns on a McIlwain tissue chopper, then resuspended and washed three times with ice cold normal Krebs buffer. […] Amino acid concentrations were analyzed with reverse phase HPLC on a catacholarine column (Keystone Scinetific, 150×3 mm) employing an 0.05 M acetate/methanol gradient. […] Amino acids were visualized by derivatization with naphthalene-2,3-dicarboxaldehyde and fluorimetric detection (Dawson, L. A. et al., Improved Temporal Resolution of Microdialysis Measurement of Glutamate and Aspartate Using Capillary Electrophoresis with Laser Induced Fluorescence Detection. J. Chromatogr. B 1997, 694, 1204-1212). […]",
  "data": [
    {"smiles": "O=C(NCCN1CCN(c2ncccn2)CC1)C12CC3CC(CC(C3)C1)C2", "note": "[adatanserin, N-[2-[4-(2-pyrimidinyl)-1-piperazinyl]ethyl]tricyclo[3.3.1.13.7]decane-1-carboxamide]", "values": [
      {"measurement": "reduction of glutamate release (azide-induced ischemic efflux)", "setting": "adatanserin 100 nM", "value": 72, "unit": "%"},
      {"measurement": "reduction of glutamate release (azide-induced ischemic efflux)", "setting": "adatanserin 1000 nM (1 μM)", "value": 71, "unit": "%"}
    ]}
  ]
}
